According to the OligoGym collection:
“And” between values parts separate entries of the source, which are not always exact repeats. Identical values can stand only once. After the bases stand the sugars from the 5' end (letter, count) and the backbone: PS all phosphorothioate, else s phosphorothioate and o phosphodiester by linkage. Methylation of C is not given here. e = 2'-O-(2-methoxyethyl) (MOE); k = constrained ethyl (cEt); d = 2'-deoxy (DNA)

Tests used:
APOL1 = conditions: ASO
SOD1 = conditions: ASO

AACGCAATGCTGACTT (sugars k2 d4 e3 k2 d5, PS)
target mRNA inhibition (APOL1; A431, 2 µM): 82%

AAGATTGGCTCTGGCT (sugars k3 d4 k3 e1 d5, PS)
target mRNA inhibition (APOL1; A431, 2 µM): 35%

AAGATTGGCTCTGGCT (sugars kkdddddkekeddddd, PS)
target mRNA inhibition (APOL1; A431, 2 µM): 65%

AAGATTGGCTCTGGCT (sugars kkddddkekekkdddd, PS)
target mRNA inhibition (APOL1; A431, 2 µM): 2%

AAGATTGGCTCTGGCT (sugars kkkddddkekekdddd, PS)
target mRNA inhibition (APOL1; A431, 2 µM): 23%

AAGTATTGCCAGCTAA (sugars k3 d4 k3 e1 d5, PS)
target mRNA inhibition (APOL1; A431, 2 µM): 49%

AAGTATTGCCAGCTAA (sugars kkdddddkekeddddd, PS)
target mRNA inhibition (APOL1; A431, 2 µM): 73%

AAGTGCAACCAATCAA (sugars k4 d9 k3, PS)
target mRNA inhibition (APOL1; A431, 0.0625 µM): 36% | target mRNA inhibition (APOL1; A431, 0.25 µM): 63% | target mRNA inhibition (APOL1; A431, 1 µM): 83%

AATGAACGCAATGCTG (sugars k4 d9 k3, PS)
target mRNA inhibition (APOL1; A431, 0.0625 µM): 35% | target mRNA inhibition (APOL1; A431, 0.25 µM): 50% | target mRNA inhibition (APOL1; A431, 1 µM): 75%

AATGTTTGCATTTGGG (sugars k4 d9 k3, PS)
target mRNA inhibition (APOL1; A431, 0.0625 µM): 95% | target mRNA inhibition (APOL1; A431, 0.25 µM): 99% and 97% | target mRNA inhibition (APOL1; A431, 1 µM): 100% and 98%

AATTCTATTAGAGGGC (sugars k3 d4 k3 e1 d5, PS)
target mRNA inhibition (APOL1; A431, 2 µM): 70%

AATTCTATTAGAGGGC (sugars kkkddddkekekdddd, PS)
target mRNA inhibition (APOL1; A431, 2 µM): 41%

ACACATCATTGGGTTA (sugars kkkddddkekeddddd, PS)
target mRNA inhibition (APOL1; A431, 2 µM): 58%

ACACATCATTGGGTTA (sugars kkkddddkekekdddd, PS)
target mRNA inhibition (APOL1; A431, 2 µM): 32%

ACAGCATTGAGTACAA (sugars k4 d9 k3, PS)
target mRNA inhibition (APOL1; A431, 0.0625 µM): 44% | target mRNA inhibition (APOL1; A431, 0.25 µM): 78% | target mRNA inhibition (APOL1; A431, 1 µM): 90%

ACGCAATGCTGACTTG (sugars k3 d4 k3 e1 d5, PS)
target mRNA inhibition (APOL1; A431, 2 µM): 88%

ACGCAATGCTGACTTG (sugars kekddddeekkddddd, PS)
target mRNA inhibition (APOL1; A431, 2 µM): 91%

ACGCAATGCTGACTTG (sugars kkddddekekeddddd, PS)
target mRNA inhibition (APOL1; A431, 0.0156 µM): 6% | target mRNA inhibition (APOL1; A431, 0.0625 µM): 23% | target mRNA inhibition (APOL1; A431, 0.25 µM): 59% | target mRNA inhibition (APOL1; A431, 1 µM): 80% | target mRNA inhibition (APOL1; A431, 2 µM): 92%

ACGCAATGCTGACTTG (sugars kkddddkekekddddd, PS)
target mRNA inhibition (APOL1; A431, 2 µM): 79%

ACGCAATGCTGACTTG (sugars kkkddddkdkdkdddd, PS)
target mRNA inhibition (APOL1; A431, 2 µM): 70%

ACTTTATACCAGTGTC (sugars k2 d4 e3 k2 d5, PS)
target mRNA inhibition (APOL1; A431, 2 µM): 91%

AGCATCAAAAACCTGG (sugars k4 d9 k3, PS)
target mRNA inhibition (APOL1; A431, 0.0625 µM): 66% | target mRNA inhibition (APOL1; A431, 0.25 µM): 81% | target mRNA inhibition (APOL1; A431, 1 µM): 89%

AGCTTTAAACTCAGGT (sugars kkkddddkekekdddd, PS)
target mRNA inhibition (APOL1; A431, 2 µM): 64%

AGGTTGTCCAGAGCTT (sugars k4 d9 k3, PS)
target mRNA inhibition (APOL1; A431, 0.0625 µM): 51% | target mRNA inhibition (APOL1; A431, 0.25 µM): 60% | target mRNA inhibition (APOL1; A431, 1 µM): 69%

AGTATTGCCAGCTAAG (sugars k4 d9 k3, PS)
target mRNA inhibition (APOL1; A431, 0.0625 µM): 63% | target mRNA inhibition (APOL1; A431, 0.25 µM): 89% | target mRNA inhibition (APOL1; A431, 1 µM): 97%

AGTATTGCCAGCTAAG (sugars kkdddddkekeddddd, PS)
target mRNA inhibition (APOL1; A431, 2 µM): 86%

AGTATTGCCAGCTAAG (sugars kkddddekekeddddd, PS)
target mRNA inhibition (APOL1; A431, 2 µM): 78%

AGTATTGCCAGCTAAG (sugars kkddddkekekddddd, PS)
target mRNA inhibition (APOL1; A431, 2 µM): 65%

AGTATTGCCAGCTAAG (sugars kkddddkekekkdddd, PS)
target mRNA inhibition (APOL1; A431, 2 µM): 34%

AGTATTGCCAGCTAAG (sugars kkkddddkekekdddd, PS)
target mRNA inhibition (APOL1; A431, 2 µM): 66%

AGTATTGTTTTTGTGG (sugars k2 d4 e4 k2 d4, PS)
target mRNA inhibition (APOL1; A431, 2 µM): 85%

AGTATTGTTTTTGTGG (sugars k3 d4 k3 e1 d5, PS)
target mRNA inhibition (APOL1; A431, 2 µM): 89%

AGTATTGTTTTTGTGG (sugars kkddddkekekkdddd, PS)
target mRNA inhibition (APOL1; A431, 2 µM): 66%

AGTTTTGTAAGTGCAA (sugars kkkddddkekekdddd, PS)
target mRNA inhibition (APOL1; A431, 2 µM): 77%

ATAATGGTAGGTCTAC (sugars k4 d9 k3, PS)
target mRNA inhibition (APOL1; A431, 0.0625 µM): 42% | target mRNA inhibition (APOL1; A431, 0.25 µM): 78% | target mRNA inhibition (APOL1; A431, 1 µM): 90%

ATATCAGATGGGTACT (sugars k2 d4 e3 k2 d5, PS)
target mRNA inhibition (APOL1; A431, 2 µM): 52%

ATATCAGATGGGTACT (sugars kkddddkekekddddd, PS)
target mRNA inhibition (APOL1; A431, 2 µM): 21%

ATCAGATGGGTACTTC (sugars kekddddeekkddddd, PS)
target mRNA inhibition (APOL1; A431, 2 µM): 91%

ATCAGATGGGTACTTC (sugars kkddddekekeddddd, PS)
target mRNA inhibition (APOL1; A431, 2 µM): 73%

ATCAGATGGGTACTTC (sugars kkddddkekekkdddd, PS)
target mRNA inhibition (APOL1; A431, 2 µM): 45%

ATCAGATGGGTACTTC (sugars kkkddddkdkdkdddd, PS)
target mRNA inhibition (APOL1; A431, 2 µM): 79%

ATCAGATGGGTACTTC (sugars kkkddddkekeddddd, PS)
target mRNA inhibition (APOL1; A431, 2 µM): 85%

ATGAACGCAATGCTGA (sugars k4 d9 k3, PS)
target mRNA inhibition (APOL1; A431, 0.0625 µM): 52% | target mRNA inhibition (APOL1; A431, 0.25 µM): 76% | target mRNA inhibition (APOL1; A431, 1 µM): 92%

ATGCTAATTTTCTGAC (sugars kkkddddkekekdddd, PS)
target mRNA inhibition (APOL1; A431, 0.0156 µM): 26% | target mRNA inhibition (APOL1; A431, 0.0625 µM): 46% | target mRNA inhibition (APOL1; A431, 0.25 µM): 68% | target mRNA inhibition (APOL1; A431, 1 µM): 88% | target mRNA inhibition (APOL1; A431, 2 µM): 95%

ATTCTATTAGAGGGCT (sugars k3 d5 k3 d5, PS)
target mRNA inhibition (APOL1; A431, 2 µM): 95%

ATTCTATTAGAGGGCT (sugars kekddddeekkddddd, PS)
target mRNA inhibition (APOL1; A431, 2 µM): 77%

ATTCTATTAGAGGGCT (sugars kkddddkdkdkddddd, PS)
target mRNA inhibition (APOL1; A431, 2 µM): 74%

ATTCTATTAGAGGGCT (sugars kkkddddkdkdkdddd, PS)
target mRNA inhibition (APOL1; A431, 2 µM): 78%

ATTCTATTAGAGGGCT (sugars kkkddddkekeddddd, PS)
target mRNA inhibition (APOL1; A431, 2 µM): 73%

ATTCTATTAGAGGGCT (sugars kkkddddkekekdddd, PS)
target mRNA inhibition (APOL1; A431, 2 µM): 37%

ATTCTCATGGTACAGG (sugars k4 d9 k3, PS)
target mRNA inhibition (APOL1; A431, 0.0156 µM): 24% | target mRNA inhibition (APOL1; A431, 0.0625 µM): 49% and 50% | target mRNA inhibition (APOL1; A431, 0.25 µM): 83% and 84% | target mRNA inhibition (APOL1; A431, 1 µM): 94% and 93%

ATTCTCATGGTACAGG (sugars kddddkekekeddddd, PS)
target mRNA inhibition (APOL1; A431, 2 µM): 51%

ATTCTCATGGTACAGG (sugars kekddddeekkddddd, PS)
target mRNA inhibition (APOL1; A431, 0.0156 µM): 0% | target mRNA inhibition (APOL1; A431, 0.0625 µM): 37% | target mRNA inhibition (APOL1; A431, 0.25 µM): 76% | target mRNA inhibition (APOL1; A431, 1 µM): 90% | target mRNA inhibition (APOL1; A431, 2 µM): 96%

ATTCTCATGGTACAGG (sugars kkddddekekeddddd, PS)
target mRNA inhibition (APOL1; A431, 0.0156 µM): 40% | target mRNA inhibition (APOL1; A431, 0.0625 µM): 41% | target mRNA inhibition (APOL1; A431, 0.25 µM): 71% | target mRNA inhibition (APOL1; A431, 1 µM): 90% | target mRNA inhibition (APOL1; A431, 2 µM): 95%

ATTCTCATGGTACAGG (sugars kkddddkekekkdddd, PS)
target mRNA inhibition (APOL1; A431, 2 µM): 34%

TTTAATGTTTATCAGGAT (sugars e5 d8 e5, linkages s1 o3 s9 o2 s2)
target mRNA inhibition (SOD1; A431, 0.12 µM): 13% | target mRNA inhibition (SOD1; A431, 0.6 µM): 19% | target mRNA inhibition (SOD1; A431, 3 µM): 22% | target mRNA inhibition (SOD1; A431, 15 µM): 7% | target mRNA inhibition (SOD1; HepG2, 0.222 µM): 10% | target mRNA inhibition (SOD1; HepG2, 0.667 µM): 24% | target mRNA inhibition (SOD1; HepG2, 2 µM): 28% | target mRNA inhibition (SOD1; HepG2, 6 µM): 53%

TTTATTCACAGGCTTGA (sugars e2 k2 d9 k2 e2, PS)
target mRNA inhibition (SOD1; HepG2, 5 µM): 55%

TTTATTCACAGGCTTGA (sugars e3 k2 d7 k2 e3, PS)
target mRNA inhibition (SOD1; HepG2, 3 µM): 29%

TTTTCATGGACCACCAGTGT (sugars e5 d10 e5, PS)
target mRNA inhibition (SOD1; HepG2, 5 µM): 17%

TTTTTATTCACAGGCTT (sugars e3 k2 d7 k2 e3, PS)
target mRNA inhibition (SOD1; HepG2, 3 µM): 31%
